Data published in ChEMBL document CHEMBL5096183, “Contemporary advances of cyclic molecules proposed for inflammation” (Eur J Med Chem, 2021).
≈ marks a conversion by molar mass, not a printed value.

Assays:
[1] = biological target: T1, Prostaglandin G/H synthase 2 (Homo sapiens, UniProt P35354); assay: Inhibition of human recombinant COX-2
T1 sequence (P35354 whole entry): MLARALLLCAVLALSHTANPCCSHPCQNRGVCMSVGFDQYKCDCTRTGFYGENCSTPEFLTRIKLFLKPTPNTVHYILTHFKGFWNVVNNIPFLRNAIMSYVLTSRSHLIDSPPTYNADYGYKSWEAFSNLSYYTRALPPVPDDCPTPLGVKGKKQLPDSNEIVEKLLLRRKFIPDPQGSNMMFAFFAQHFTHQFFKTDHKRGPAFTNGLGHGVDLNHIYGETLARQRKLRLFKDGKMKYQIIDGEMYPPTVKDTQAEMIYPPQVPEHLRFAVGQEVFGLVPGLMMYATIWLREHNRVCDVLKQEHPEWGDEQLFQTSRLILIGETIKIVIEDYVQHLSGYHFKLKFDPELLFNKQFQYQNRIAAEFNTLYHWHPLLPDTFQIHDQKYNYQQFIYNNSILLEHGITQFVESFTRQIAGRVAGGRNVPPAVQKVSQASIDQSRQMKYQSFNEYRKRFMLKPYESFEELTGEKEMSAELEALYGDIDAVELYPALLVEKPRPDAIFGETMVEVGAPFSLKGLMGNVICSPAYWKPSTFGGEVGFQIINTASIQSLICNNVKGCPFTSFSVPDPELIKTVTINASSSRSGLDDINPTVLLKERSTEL

[2] = biological target: Epidermal growth factor receptor (Homo sapiens, UniProt P00533); assay: Inhibition of recombinant EGFR (unknown origin) expressed in baculovirus incubated for 10 mins by europium-labeled antiphosphotyrosine/enhancement solution based assay
Epidermal growth factor receptor, sequence (P00533 whole entry): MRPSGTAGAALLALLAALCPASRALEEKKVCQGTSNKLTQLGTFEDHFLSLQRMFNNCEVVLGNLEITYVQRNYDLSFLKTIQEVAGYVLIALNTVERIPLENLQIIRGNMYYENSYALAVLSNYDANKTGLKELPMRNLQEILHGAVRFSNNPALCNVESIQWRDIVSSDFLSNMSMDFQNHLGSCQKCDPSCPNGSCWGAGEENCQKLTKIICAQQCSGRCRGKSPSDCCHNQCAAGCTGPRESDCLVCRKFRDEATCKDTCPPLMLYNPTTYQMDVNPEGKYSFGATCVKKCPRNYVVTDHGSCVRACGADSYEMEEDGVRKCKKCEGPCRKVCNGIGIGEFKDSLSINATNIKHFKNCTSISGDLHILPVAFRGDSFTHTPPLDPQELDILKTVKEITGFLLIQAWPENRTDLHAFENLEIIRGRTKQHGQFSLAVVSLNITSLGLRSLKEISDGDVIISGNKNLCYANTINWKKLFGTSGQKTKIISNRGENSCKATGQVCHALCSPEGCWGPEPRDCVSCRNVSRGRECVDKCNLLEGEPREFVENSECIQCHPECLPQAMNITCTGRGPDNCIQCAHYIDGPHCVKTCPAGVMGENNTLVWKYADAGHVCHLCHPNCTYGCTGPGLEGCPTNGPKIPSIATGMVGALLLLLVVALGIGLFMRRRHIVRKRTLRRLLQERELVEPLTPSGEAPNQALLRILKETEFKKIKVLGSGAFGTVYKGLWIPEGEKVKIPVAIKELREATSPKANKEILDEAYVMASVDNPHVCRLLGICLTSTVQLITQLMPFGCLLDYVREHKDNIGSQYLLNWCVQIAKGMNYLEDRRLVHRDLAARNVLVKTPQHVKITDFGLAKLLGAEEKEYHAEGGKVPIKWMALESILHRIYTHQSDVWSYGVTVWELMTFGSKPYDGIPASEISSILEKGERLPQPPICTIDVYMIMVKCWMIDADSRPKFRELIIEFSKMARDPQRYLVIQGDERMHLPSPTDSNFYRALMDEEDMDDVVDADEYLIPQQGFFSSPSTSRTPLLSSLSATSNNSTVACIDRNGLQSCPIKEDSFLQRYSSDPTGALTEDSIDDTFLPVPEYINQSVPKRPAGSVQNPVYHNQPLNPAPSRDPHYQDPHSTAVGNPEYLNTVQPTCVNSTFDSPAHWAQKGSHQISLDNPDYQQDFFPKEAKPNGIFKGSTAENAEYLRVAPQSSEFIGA

[3] = Inhibition of mouse full-length GST-tagged BRAF V600E mutant incubated for 1 hrs
[4] = system: Rattus norvegicus; assay: Anti-inflammatory activity against carrageenan-induced paw edema in rat relative to control; type: functional
[5] = system: Rattus norvegicus; assay: Anti-inflammatory activity against carrageenan-induced paw edema in PO dosed Wistar albino rat measured after 2 hrs; type: functional
[6] = system: Mus musculus; assay: Anti-inflammatory activity against Carrageenan-induced paw edema in Swiss albino mouse assessed as change in paw volume at 10 mg/kg, PO measured for 3 to 6 hrs by plethysmometric analysis relative to control; type: functional; settings: time 3-6 hrs
[7] = system: Rattus norvegicus; assay: Anti-inflammatory activity against carrageenan-induced paw edema in rat
[8] = system: Mus musculus; assay: Analgesic activity in hot plate induced thermal pain Swiss albino mouse model assessed as change in latency at 10 mg/kg, po measured at 1 to 2 hrs relative to control; type: functional; settings: time 1-2 hrs
[9] = system: Rattus norvegicus; assay: Anti-inflammatory activity against formalin-induced foot paw edema in Wistar rat assessed as oedema inhibition at 10 mg/kg,po measured for 1 to 3 hrs by plethysmometric analysis relative to control; type: functional; settings: time 1-3 hrs
[10] = Acute toxicity in PO dosed Wistar albino rat measured for 14 days; type: organism-based; settings: in vivo, time 14 day
[11] = system: Rattus norvegicus; assay: Anti-inflammatory activity against Carrageenan-induced paw edema in Wistar rat at 5 mg/kg, po pretreated for 30 mins followed by carrageenan addition after 4 hrs by Plethysmometric analysis relative to control; type: functional; settings: time 4.5 hrs
[12] = Inhibition of soy 15-LOX enzyme immunoassay; set-up: species or system Glycine max
[13] = biological target: T2, Prostaglandin G/H synthase 1 (Ovis aries, UniProt P05979); assay: Inhibition of ovine COX-1 preincubated for 10 mins followed by arachidonic acid addition for 2 mins
T2 sequence (P05979 whole entry): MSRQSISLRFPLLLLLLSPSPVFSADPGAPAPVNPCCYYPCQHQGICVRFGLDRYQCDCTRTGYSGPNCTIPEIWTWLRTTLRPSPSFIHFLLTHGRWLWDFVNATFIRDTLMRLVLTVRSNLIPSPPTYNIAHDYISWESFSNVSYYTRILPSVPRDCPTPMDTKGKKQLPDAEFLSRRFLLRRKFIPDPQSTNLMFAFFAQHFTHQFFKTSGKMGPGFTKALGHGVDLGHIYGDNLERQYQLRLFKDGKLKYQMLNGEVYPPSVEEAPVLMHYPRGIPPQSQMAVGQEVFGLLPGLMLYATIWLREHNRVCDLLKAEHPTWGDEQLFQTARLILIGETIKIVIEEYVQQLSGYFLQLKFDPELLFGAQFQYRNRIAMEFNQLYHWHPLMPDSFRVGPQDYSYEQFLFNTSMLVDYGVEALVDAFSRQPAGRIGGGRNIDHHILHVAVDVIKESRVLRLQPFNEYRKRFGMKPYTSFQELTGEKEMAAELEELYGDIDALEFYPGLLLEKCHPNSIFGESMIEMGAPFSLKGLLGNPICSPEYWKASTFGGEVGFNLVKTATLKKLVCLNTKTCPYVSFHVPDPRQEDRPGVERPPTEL

[14] = Antioxidant activity assessed as DPPH radical scavenging activity incubated for 20 mins by UV spectrometric analysis; type: functional
[15] = biological target: T3, Seed linoleate 13S-lipoxygenase-1 (Glycine max) (UniProt P08170); assay: Binding affinity to soybean LOX-1 assessed as quenching ability by fluorescence based assay relative to control
T3 sequence (whole entry): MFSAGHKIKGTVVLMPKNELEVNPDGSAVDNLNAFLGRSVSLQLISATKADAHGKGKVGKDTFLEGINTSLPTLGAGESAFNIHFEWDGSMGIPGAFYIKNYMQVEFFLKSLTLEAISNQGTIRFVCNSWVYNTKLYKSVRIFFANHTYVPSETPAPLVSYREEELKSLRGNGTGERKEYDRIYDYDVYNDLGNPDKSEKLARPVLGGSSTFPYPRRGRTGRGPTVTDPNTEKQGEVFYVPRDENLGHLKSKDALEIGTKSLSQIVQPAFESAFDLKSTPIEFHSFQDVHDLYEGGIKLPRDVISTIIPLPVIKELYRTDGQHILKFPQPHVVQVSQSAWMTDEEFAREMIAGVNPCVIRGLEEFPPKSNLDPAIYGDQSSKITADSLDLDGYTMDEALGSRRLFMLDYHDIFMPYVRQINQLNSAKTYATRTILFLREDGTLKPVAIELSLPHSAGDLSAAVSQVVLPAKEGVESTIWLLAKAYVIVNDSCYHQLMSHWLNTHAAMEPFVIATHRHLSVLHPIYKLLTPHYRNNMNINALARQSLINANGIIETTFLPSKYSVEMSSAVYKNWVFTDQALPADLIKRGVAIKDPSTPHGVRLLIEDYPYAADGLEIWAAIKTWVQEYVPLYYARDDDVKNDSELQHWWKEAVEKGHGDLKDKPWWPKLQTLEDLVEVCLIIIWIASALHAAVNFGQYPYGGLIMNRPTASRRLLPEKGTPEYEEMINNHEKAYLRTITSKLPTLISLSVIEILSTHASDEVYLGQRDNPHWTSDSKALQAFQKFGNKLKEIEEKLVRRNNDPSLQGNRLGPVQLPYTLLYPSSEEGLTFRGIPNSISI

[16] = biological target: T4, Seed linoleate 13S-lipoxygenase-1 (Glycine max, UniProt P08170); assay: Inhibition of soybean LOX-1 using linoleic acid as substrate measured for 3 mins
T4 sequence (P08170 whole entry): T3 sequence (whole entry)

[17] = system: RAW264.7; assay: Anti-inflammatory against LPS induced mouse RAW 264.7 cells assessed as inhibition of NO measured for 24 hrs by ELISA analysis; type: functional, cell-based; settings: RAW264.7, 24 h
[18] = system: RAW264.7; assay: Anti-inflammatory against LPS induced mouse RAW 264.7 cells assessed as inhibition of IL-1beta measured for 24 hrs by ELISA analysis; type: functional, cell-based; settings: RAW264.7, 24 h
[19] = system: RAW264.7; assay: Anti-inflammatory against LPS induced mouse RAW 264.7 cells assessed as inhibition of IL-6 measured for 24 hrs by ELISA analysis; type: functional, cell-based; settings: RAW264.7, 24 h
[20] = system: Rattus norvegicus; assay: Anti-inflammatory activity against carrageenan-induced paw edema in PO dosed Wistar albino rat assessed as edema inhibition percentage measured for 2 hrs relative to control; type: functional
[21] = system: Rattus norvegicus; assay: Anti-inflammatory activity against carrageenan-induced paw edema in Albino rat assessed as percentage of protection at 50 mg/kg,po pretreated for 1 hrs followed by carrageenan addition measured after 4 hrs by plethysmography method relative to control; type: functional; settings: time 5 hrs

COc1ccc(/C=C/C(=O)c2cc(-n3cc(CN4C(=O)C(=O)c5ccccc54)nn3)ccc2O)cc1 showed an IC50 [1] of 0.037 µM.

Cc1ccc(/C=N/NC(=O)CNc2nc(-c3ccccc3)c(-c3ccccc3)s2)cc1 gave an IC50 [2] of 0.2 µM and an IC50 [3] of 1.7 µM.

Compound Cc1ccc(-c2cc(C(F)(F)F)nn2-c2ccc(S(N)(=O)=O)cc2)cc1 [CELECOXIB] has an Activity [4] of 83.4%, an ED50 [5] of 32 µmol/kg and an Activity [6] of 32%. For the same compound, the ED50 [7] was 34.1 mg/kg.

For COc1ccc(/C=C/C(=O)c2cccc(N3C(=O)c4ccccc4C3=O)c2)cc1OC, the inhibition in vivo at 10 mg/kg [8] was 45.8% and the inhibition in vivo at 10 mg/kg [9] was 45%.

For O=C(Cc1cn(-c2ccccc2)nc1O)Nc1ccccc1-c1cc(-c2ccc(Br)cc2)n(-c2ccccc2)n1, the LD50 at 336 h [10] was 2000 mg/kg.

With COc1ccc(-c2cc(-c3ccccc3)nn2CC(=O)Nc2ccc(S(N)(=O)=O)cc2)cc1 the inhibition in vivo at 5 mg/kg [11] was 81%.

In the case of Cc1ccc(Cl)c(Nc2ccccc2C(=O)O)c1Cl [MECLOFENAMATE SODIUM], the IC50 [12] is reported as 5.64 µM.

Work on CC1=NN(c2cccc(Cl)c2)C(=O)/C1=C\c1cn(-c2nc(N3CCOCC3)nc(N3CCOCC3)n2)c2ccccc12 yielded an IC50 [13] of 20 µM.

With COCc1nc2ccc3occc3c2o1 the IC50 [14] was 360 µg/mL (≈ 1770 µM), the Qmax [15] was 76.3% and the IC50 [16] was 65.4 µM.

Compound CN(C)c1cccc2c(S(=O)(=O)Oc3cccc4oc(=O)[nH]c34)cccc12 has an IC50 [17] of 17.7 µM, an IC50 [18] of 20.1 µM and an IC50 [19] of 8.61 µM.

With CC1=NN(c2ccccc2C(=O)O)C(=O)/C1=N/Nc1ccc(S(N)(=O)=O)cc1 the ED50 [5] was 44 µmol/kg and the “inhibition (INH)” value [20] was 54.54%.

In the case of CCc1nnc(-c2cc3cc([N+](=O)[O-])ccc3o2)o1, the Activity [21] is reported as 72%.
